Data from ChEMBL document CHEMBL5724806, “Unraveling interindividual differences and functional consequences of gut microbial metabolism of immunosuppressants” (2024).

Experiments:
Assay type in all cases: ADME
[1] = (§1) The drug is tested on the gut metagenome community of A-03 with ENA study accession number: PRJEB31790 for biotransformation under microaerobic condition. The drug concentrations were measured over 7 timepoints collected between 0 and 12 hours of incubation by liquid-chromatography-coupled mass spectrometry (LC–MS); set-up: dose 5 uM, timepoint 0, 0.75, 1.5, 3, 6, 9, 12 hours; conditions: 5 µM
[2] = The drug is tested on Blautia hansenii strain: DSM20583 for biotransformation under anaerobic condition. The drug concentrations were measured over 6 timepoints collected between 0 and 12 hours of incubation by liquid-chromatography-coupled mass spectrometry (LC–MS); set-up: dose 5 uM, timepoint 0, 1.5, 3, 6, 9, 12 hours; conditions: 5 µM
[3] = The drug is tested on Lactobacillus reuteri strain: DSM20016 for biotransformation under microaerobic condition. The drug concentrations were measured over 6 timepoints collected between 0 and 12 hours of incubation by liquid-chromatography-coupled mass spectrometry (LC–MS); set-up: dose 5 uM, timepoint 0, 1.5, 3, 6, 9, 12 hours; conditions: limosilactobacillus reuteri, 5 µM
[4] = The drug is tested on Lactobacillus fermentum strain: DSM20052 for biotransformation under microaerobic condition. The drug concentrations were measured over 6 timepoints collected between 0 and 12 hours of incubation by liquid-chromatography-coupled mass spectrometry (LC–MS); set-up: dose 5 uM, timepoint 0, 1.5, 3, 6, 9, 12 hours; conditions: limosilactobacillus fermentum, 5 µM
[5] = as §1, with “A-01” for “A-03”; set-up: dose 5 uM, timepoint 0, 0.75, 1.5, 3, 6, 9, 12 hours; conditions: 5 µM
[6] = The drug is tested on Clostridium scindens strain: DSM5676 for biotransformation under anaerobic condition. The drug concentrations were measured over 6 timepoints collected between 0 and 12 hours of incubation by liquid-chromatography-coupled mass spectrometry (LC–MS); set-up: dose 5 uM, timepoint 0, 1.5, 3, 6, 9, 12 hours; conditions: 5 µM
[7] = as §1, with “A-07” for “A-03”, “anaerobic” for “microaerobic”; set-up: dose 5 uM, timepoint 0, 0.75, 1.5, 3, 6, 9, 12 hours; conditions: 5 µM
[8] = The drug is tested on Lactobacillus fermentum strain: DSM20052 for biotransformation under anaerobic condition. The drug concentrations were measured over 6 timepoints collected between 0 and 12 hours of incubation by liquid-chromatography-coupled mass spectrometry (LC–MS); set-up: dose 5 uM, timepoint 0, 1.5, 3, 6, 9, 12 hours; conditions: limosilactobacillus fermentum, 5 µM
[9] = The drug is tested on Enterococcus faecalis strain: ATCC29212 for biotransformation under microaerobic condition. The drug concentrations were measured over 6 timepoints collected between 0 and 12 hours of incubation by liquid-chromatography-coupled mass spectrometry (LC–MS); set-up: dose 5 uM, timepoint 0, 1.5, 3, 6, 9, 12 hours; conditions: 5 µM
[10] = as §1, with “A-06” for “A-03”; set-up: dose 5 uM, timepoint 0, 0.75, 1.5, 3, 6, 9, 12 hours; conditions: 5 µM
[11] = The drug is tested on Bacteroides fragilis strain: DSM2151 for biotransformation under anaerobic condition. The drug concentrations were measured over 6 timepoints collected between 0 and 12 hours of incubation by liquid-chromatography-coupled mass spectrometry (LC–MS); set-up: dose 5 uM, timepoint 0, 1.5, 3, 6, 9, 12 hours; conditions: 5 µM
[12] = as §1, with “A-05” for “A-03”, “anaerobic” for “microaerobic”; set-up: dose 5 uM, timepoint 0, 0.75, 1.5, 3, 6, 9, 12 hours; conditions: 5 µM
[13] = The drug is tested on Capnocytophaga ochracea strain: DSM7271 for biotransformation under microaerobic condition. The drug concentrations were measured over 6 timepoints collected between 0 and 12 hours of incubation by liquid-chromatography-coupled mass spectrometry (LC–MS); set-up: dose 5 uM, timepoint 0, 1.5, 3, 6, 9, 12 hours; conditions: 5 µM
[14] = The drug is tested on Bacteroides caccae strain: DSM19024 for biotransformation under anaerobic condition. The drug concentrations were measured over 6 timepoints collected between 0 and 12 hours of incubation by liquid-chromatography-coupled mass spectrometry (LC–MS); set-up: dose 5 uM, timepoint 0, 1.5, 3, 6, 9, 12 hours; conditions: 5 µM
[15] = The drug is tested on Bacteroides uniformis strain: DSM6597 for biotransformation under anaerobic condition. The drug concentrations were measured over 6 timepoints collected between 0 and 12 hours of incubation by liquid-chromatography-coupled mass spectrometry (LC–MS); set-up: dose 5 uM, timepoint 0, 1.5, 3, 6, 9, 12 hours; conditions: 5 µM
[16] = as §1, with “A-01” for “A-03”, “anaerobic” for “microaerobic”; set-up: dose 5 uM, timepoint 0, 0.75, 1.5, 3, 6, 9, 12 hours; conditions: 5 µM
[17] = The drug is tested on Bacteroides ovatus strain: ATCC 8483 for biotransformation under anaerobic condition. The drug concentrations were measured over 6 timepoints collected between 0 and 12 hours of incubation by liquid-chromatography-coupled mass spectrometry (LC–MS); set-up: dose 5 uM, timepoint 0, 1.5, 3, 6, 9, 12 hours; conditions: 5 µM
[18] = as §1, with “P-02” for “A-03”; set-up: dose 5 uM, timepoint 0, 0.75, 1.5, 3, 6, 9, 12 hours; conditions: 5 µM
[19] = The drug is tested on Actinomyces naeslundi strain: DSM43013 for biotransformation under microaerobic condition. The drug concentrations were measured over 6 timepoints collected between 0 and 12 hours of incubation by liquid-chromatography-coupled mass spectrometry (LC–MS); set-up: dose 5 uM, timepoint 0, 1.5, 3, 6, 9, 12 hours; conditions: actinomyces naeslundii, 5 µM
[20] = The drug is tested on Collinsella aerofaciens strain: DSM3979 for biotransformation under anaerobic condition. The drug concentrations were measured over 6 timepoints collected between 0 and 12 hours of incubation by liquid-chromatography-coupled mass spectrometry (LC–MS); set-up: dose 5 uM, timepoint 0, 1.5, 3, 6, 9, 12 hours; conditions: 5 µM
[21] = as §1, with “P-04” for “A-03”, “anaerobic” for “microaerobic”; set-up: dose 5 uM, timepoint 0, 0.75, 1.5, 3, 6, 9, 12 hours; conditions: 5 µM
[22] = The drug is tested on Streptococcus anginosus strain: DSM20563 for biotransformation under microaerobic condition. The drug concentrations were measured over 6 timepoints collected between 0 and 12 hours of incubation by liquid-chromatography-coupled mass spectrometry (LC–MS); set-up: dose 5 uM, timepoint 0, 1.5, 3, 6, 9, 12 hours; conditions: 5 µM
[23] = as §1, with “A-08” for “A-03”, “anaerobic” for “microaerobic”; set-up: dose 5 uM, timepoint 0, 0.75, 1.5, 3, 6, 9, 12 hours; conditions: 5 µM
[24] = as §1, with “A-05” for “A-03”; set-up: dose 5 uM, timepoint 0, 0.75, 1.5, 3, 6, 9, 12 hours; conditions: 5 µM
[25] = The drug is tested on Eubacterium rectale strain: DSM17629 for biotransformation under anaerobic condition. The drug concentrations were measured over 6 timepoints collected between 0 and 12 hours of incubation by liquid-chromatography-coupled mass spectrometry (LC–MS); set-up: dose 5 uM, timepoint 0, 1.5, 3, 6, 9, 12 hours; conditions: agathobacter rectalis, 5 µM
[26] = The drug is tested on Lactobacillus ruminis strain: ATCC25644 for biotransformation under anaerobic condition. The drug concentrations were measured over 6 timepoints collected between 0 and 12 hours of incubation by liquid-chromatography-coupled mass spectrometry (LC–MS); set-up: dose 5 uM, timepoint 0, 1.5, 3, 6, 9, 12 hours; conditions: ligilactobacillus ruminis, 5 µM
[27] = The drug is tested on Alloscardovia omnicolens strain: DSM21503 for biotransformation under microaerobic condition. The drug concentrations were measured over 6 timepoints collected between 0 and 12 hours of incubation by liquid-chromatography-coupled mass spectrometry (LC–MS); set-up: dose 5 uM, timepoint 0, 1.5, 3, 6, 9, 12 hours; conditions: 5 µM
[28] = as §1, with “A-09” for “A-03”, “anaerobic” for “microaerobic”; set-up: dose 5 uM, timepoint 0, 0.75, 1.5, 3, 6, 9, 12 hours; conditions: 5 µM
[29] = The drug is tested on Streptococcus sanguinis strain: DSM20567 for biotransformation under microaerobic condition. The drug concentrations were measured over 6 timepoints collected between 0 and 12 hours of incubation by liquid-chromatography-coupled mass spectrometry (LC–MS); set-up: dose 5 uM, timepoint 0, 1.5, 3, 6, 9, 12 hours; conditions: 5 µM
[30] = The drug is tested on Gemella haemolysans strain: DSM107751 for biotransformation under microaerobic condition. The drug concentrations were measured over 6 timepoints collected between 0 and 12 hours of incubation by liquid-chromatography-coupled mass spectrometry (LC–MS); set-up: dose 5 uM, timepoint 0, 1.5, 3, 6, 9, 12 hours; conditions: 5 µM

Compound: Cn1cnc([N+](=O)[O-])c1Sc1ncnc2nc[nH]c12 [AZATHIOPRINE]
- Bacterial Biotransformation [1]: Compound metabolized
- Bacterial Biotransformation [2]: Compound NOT metabolized
- Bacterial Biotransformation [3]: Compound metabolized
- Bacterial Biotransformation [4]: Compound NOT metabolized
- Bacterial Biotransformation [5]: Compound NOT metabolized
- Bacterial Biotransformation [6]: Compound metabolized
- Bacterial Biotransformation [7]: Compound metabolized
- Bacterial Biotransformation [8]: Compound metabolized
- Bacterial Biotransformation [9]: Compound metabolized
- Bacterial Biotransformation [10]: Compound metabolized
- Bacterial Biotransformation [11]: Compound metabolized
- Bacterial Biotransformation [12]: Compound metabolized
- Bacterial Biotransformation [13]: Compound metabolized
- Bacterial Biotransformation [14]: Compound metabolized
- Bacterial Biotransformation [15]: Compound metabolized
- Bacterial Biotransformation [16]: Compound NOT metabolized
- Bacterial Biotransformation [17]: Compound metabolized
- Bacterial Biotransformation [18]: Compound NOT metabolized
- Bacterial Biotransformation [19]: Compound NOT metabolized
- Bacterial Biotransformation [20]: Compound metabolized
- Bacterial Biotransformation [21]: Compound NOT metabolized
- Bacterial Biotransformation [22]: Compound metabolized
- Bacterial Biotransformation [23]: Compound metabolized
- Bacterial Biotransformation [24]: Compound metabolized
- Bacterial Biotransformation [25]: Compound metabolized
- Bacterial Biotransformation [26]: Compound NOT metabolized
- Bacterial Biotransformation [27]: Compound NOT metabolized
- Bacterial Biotransformation [28]: Compound metabolized
- Bacterial Biotransformation [29]: Compound NOT metabolized
- Bacterial Biotransformation [30]: Compound NOT metabolized

Compound: C[C@H]1C[C@H]2[C@@H]3CCC4=CC(=O)C=C[C@]4(C)[C@@]3(F)[C@@H](O)C[C@]2(C)[C@@]1(O)C(=O)CO [BETAMETHASONE]
- Bacterial Biotransformation [1]: Compound NOT metabolized
- Bacterial Biotransformation [2]: Compound NOT metabolized
- Bacterial Biotransformation [3]: Compound NOT metabolized
- Bacterial Biotransformation [4]: Compound NOT metabolized
- Bacterial Biotransformation [5]: Compound NOT metabolized
- Bacterial Biotransformation [6]: Compound metabolized
- Bacterial Biotransformation [7]: Compound metabolized
- Bacterial Biotransformation [8]: Compound NOT metabolized
- Bacterial Biotransformation [9]: Compound NOT metabolized
- Bacterial Biotransformation [10]: Compound NOT metabolized
- Bacterial Biotransformation [11]: Compound NOT metabolized
- Bacterial Biotransformation [12]: Compound NOT metabolized
- Bacterial Biotransformation [13]: Compound NOT metabolized
- Bacterial Biotransformation [14]: Compound NOT metabolized
- Bacterial Biotransformation [15]: Compound NOT metabolized
- Bacterial Biotransformation [16]: Compound NOT metabolized
- Bacterial Biotransformation [17]: Compound NOT metabolized
- Bacterial Biotransformation [18]: Compound NOT metabolized
- Bacterial Biotransformation [19]: Compound NOT metabolized
- Bacterial Biotransformation [20]: Compound NOT metabolized
- Bacterial Biotransformation [21]: Compound NOT metabolized
- Bacterial Biotransformation [22]: Compound NOT metabolized
- Bacterial Biotransformation [23]: Compound metabolized
- Bacterial Biotransformation [24]: Compound NOT metabolized
- Bacterial Biotransformation [25]: Compound NOT metabolized
- Bacterial Biotransformation [26]: Compound NOT metabolized
- Bacterial Biotransformation [27]: Compound NOT metabolized
- Bacterial Biotransformation [28]: Compound metabolized
- Bacterial Biotransformation [29]: Compound NOT metabolized
- Bacterial Biotransformation [30]: Compound NOT metabolized

Compound: CCCC1O[C@@H]2C[C@H]3[C@@H]4CCC5=CC(=O)C=C[C@]5(C)[C@H]4[C@@H](O)C[C@]3(C)[C@]2(C(=O)CO)O1 (stereo not given in full) [BUDESONIDE]
- Bacterial Biotransformation [1]: Compound metabolized
- Bacterial Biotransformation [2]: Compound NOT metabolized
- Bacterial Biotransformation [3]: Compound NOT metabolized
- Bacterial Biotransformation [4]: Compound NOT metabolized
- Bacterial Biotransformation [5]: Compound NOT metabolized
- Bacterial Biotransformation [6]: Compound NOT metabolized
- Bacterial Biotransformation [7]: Compound metabolized
- Bacterial Biotransformation [8]: Compound NOT metabolized
- Bacterial Biotransformation [9]: Compound NOT metabolized
- Bacterial Biotransformation [10]: Compound metabolized
- Bacterial Biotransformation [11]: Compound NOT metabolized
- Bacterial Biotransformation [12]: Compound NOT metabolized
- Bacterial Biotransformation [13]: Compound NOT metabolized
- Bacterial Biotransformation [14]: Compound NOT metabolized
- Bacterial Biotransformation [15]: Compound NOT metabolized
- Bacterial Biotransformation [16]: Compound NOT metabolized
- Bacterial Biotransformation [17]: Compound NOT metabolized
- Bacterial Biotransformation [18]: Compound NOT metabolized
- Bacterial Biotransformation [19]: Compound NOT metabolized
- Bacterial Biotransformation [20]: Compound NOT metabolized
- Bacterial Biotransformation [21]: Compound NOT metabolized
- Bacterial Biotransformation [22]: Compound NOT metabolized
- Bacterial Biotransformation [23]: Compound metabolized
- Bacterial Biotransformation [24]: Compound metabolized
- Bacterial Biotransformation [25]: Compound NOT metabolized
- Bacterial Biotransformation [26]: Compound NOT metabolized
- Bacterial Biotransformation [27]: Compound NOT metabolized
- Bacterial Biotransformation [28]: Compound metabolized
- Bacterial Biotransformation [29]: Compound NOT metabolized
- Bacterial Biotransformation [30]: Compound NOT metabolized
